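Exposure lasted 48 hours, with cells grown in 96-well plates and compounds tested at five concentrations. At the TGI there is no net growth.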
Assays:
Assay in all cases: NCI tumour cell line growth inhibition, 48 h
RPMI-8226 leukemia = tested on: RPMI-8226 leukemia
SN12C renal = tested on: SN12C renal
M14 melanoma = tested on: M14 melanoma
IGROV1 ovarian = tested on: IGROV1 ovarian
NCI/ADR-RES ovarian = tested on: NCI/ADR-RES ovarian
UO-31 renal = tested on: UO-31 renal
SK-MEL-5 melanoma = tested on: SK-MEL-5 melanoma
ACHN renal = tested on: ACHN renal
KM12 colon = tested on: KM12 colon
MALME-3M melanoma = tested on: MALME-3M melanoma
MDA-N = tested on: MDA-N
SK-MEL-28 melanoma = tested on: SK-MEL-28 melanoma
BT-549 breast = tested on: BT-549 breast
HOP-62 NSCLC = tested on: HOP-62 NSCLC
UACC-257 melanoma = tested on: UACC-257 melanoma
COLO 205 colon = tested on: COLO 205 colon
A549 NSCLC = tested on: A549 NSCLC
HCT-116 colon = tested on: HCT-116 colon
T-47D breast = tested on: T-47D breast
DU-145 prostate = tested on: DU-145 prostate
TK-10 renal = tested on: TK-10 renal
SK-OV-3 ovarian = tested on: SK-OV-3 ovarian
MDA-MB-435 = tested on: MDA-MB-435
SNB-75 CNS = tested on: SNB-75 CNS
U251 CNS = tested on: U251 CNS
UACC-62 melanoma = tested on: UACC-62 melanoma
SF-539 CNS = tested on: SF-539 CNS
A498 renal = tested on: A498 renal
RXF 393 renal = tested on: RXF 393 renal
CAKI-1 renal = tested on: CAKI-1 renal
MCF7 breast = tested on: MCF7 breast
CCRF-CEM leukemia = tested on: CCRF-CEM leukemia
NCI-H460 lung = tested on: NCI-H460 lung
OVCAR-8 ovarian = tested on: OVCAR-8 ovarian
K-562 leukemia = tested on: K-562 leukemia
LOX IMVI melanoma = tested on: LOX IMVI melanoma
HS 578T breast = tested on: HS 578T breast
HCT-15 colon = tested on: HCT-15 colon
SR leukemia = tested on: SR leukemia
PC-3 prostate = tested on: PC-3 prostate
MOLT-4 leukemia = tested on: MOLT-4 leukemia
SW-620 colon = tested on: SW-620 colon
786-0 renal = tested on: 786-0 renal
OVCAR-3 ovarian = tested on: OVCAR-3 ovarian
MDA-MB-231 breast = tested on: MDA-MB-231 breast
OVCAR-5 ovarian = tested on: OVCAR-5 ovarian
OVCAR-4 ovarian = tested on: OVCAR-4 ovarian
NCI-H226 lung = tested on: NCI-H226 lung
SF-295 CNS = tested on: SF-295 CNS
NCI-H522 lung = tested on: NCI-H522 lung
HOP-92 NSCLC = tested on: HOP-92 NSCLC
HL-60(TB) leukemia = tested on: HL-60(TB) leukemia
HT29 colon = tested on: HT29 colon
SF-268 CNS = tested on: SF-268 CNS
SK-MEL-2 melanoma = tested on: SK-MEL-2 melanoma
NCI-H23 lung = tested on: NCI-H23 lung
EKVX NSCLC = tested on: EKVX NSCLC
SNB-19 CNS = tested on: SNB-19 CNS
HCC-2998 colon = tested on: HCC-2998 colon

O=c1c(O)c(-c2cc(O)c(O)c(O)c2)oc2cc(O)cc(O)c12
TGI (RPMI-8226 leukemia): > 100 µM | TGI (SN12C renal): […] | TGI (M14 melanoma): > 100 µM | TGI (IGROV1 ovarian): > 100 µM | TGI (NCI/ADR-RES ovarian): 53.2 µM | TGI (UO-31 renal): > 100 µM | TGI (SK-MEL-5 melanoma): > 100 µM | TGI (ACHN renal): > 100 µM | TGI (KM12 colon): 33.1 µM | TGI (MALME-3M melanoma): > 100 µM | TGI (MDA-N): 24.5 µM | TGI (SK-MEL-28 melanoma): > 100 µM | TGI (BT-549 breast): > 100 µM | TGI (HOP-62 NSCLC): 41.4 µM | TGI (UACC-257 melanoma): > 100 µM | TGI (COLO 205 colon): > 100 µM | TGI (A549 NSCLC): > 100 µM | TGI (HCT-116 colon): 34.1 µM | TGI (T-47D breast): > 100 µM | TGI (DU-145 prostate): > 100 µM | TGI (TK-10 renal): > 100 µM | TGI (SK-OV-3 ovarian): > 100 µM | TGI (MDA-MB-435): 34.8 µM | TGI (SNB-75 CNS): > 100 µM | TGI (U251 CNS): 32.8 µM | TGI (UACC-62 melanoma): > 100 µM | TGI (SF-539 CNS): > 100 µM | TGI (A498 renal): > 100 µM | TGI (RXF 393 renal): 43.4 µM | TGI (CAKI-1 renal): 54 µM | TGI (MCF7 breast): 37.4 µM | TGI (CCRF-CEM leukemia): > 100 µM | TGI (NCI-H460 lung): 39.1 µM | TGI (OVCAR-8 ovarian): 33.2 µM | TGI (K-562 leukemia): > 100 µM | TGI (LOX IMVI melanoma): 31 µM | TGI (HS 578T breast): > 100 µM | TGI (HCT-15 colon): 71.8 µM | TGI (SR leukemia): > 100 µM | TGI (PC-3 prostate): > 100 µM | TGI (MOLT-4 leukemia): > 100 µM | TGI (SW-620 colon): 36 µM | TGI (786-0 renal): 44.8 µM | TGI (OVCAR-3 ovarian): 89.7 µM | TGI (MDA-MB-231 breast): 35.8 µM | TGI (OVCAR-5 ovarian): > 100 µM | TGI (OVCAR-4 ovarian): 30.2 µM | TGI (NCI-H226 lung): 57.1 µM | TGI (SF-295 CNS): 36.3 µM | TGI (NCI-H522 lung): > 100 µM | TGI (HOP-92 NSCLC): > 100 µM | TGI (HL-60(TB) leukemia): > 100 µM | TGI (HT29 colon): 38.9 µM | TGI (SF-268 CNS): > 100 µM | TGI (SK-MEL-2 melanoma): > 100 µM | TGI (NCI-H23 lung): 35.4 µM

O=C1Oc2cc(O)cc(/C=C/c3ccc(O)cc3)c2[C@@]12c1c(O)cc(O)cc1OC2c1cccc(O)c1 (some centres undefined)
TGI (RPMI-8226 leukemia): 37.1 µM | TGI (SN12C renal): 78 µM | TGI (EKVX NSCLC): > 100 µM | TGI (M14 melanoma): > 100 µM | TGI (IGROV1 ovarian): 31 µM | TGI (NCI/ADR-RES ovarian): > 100 µM | TGI (UO-31 renal): > 100 µM | TGI (SK-MEL-5 melanoma): 43.3 µM | TGI (ACHN renal): > 100 µM | TGI (KM12 colon): > 100 µM | TGI (MALME-3M melanoma): > 100 µM | TGI (MDA-N): 93.2 µM | TGI (SK-MEL-28 melanoma): > 100 µM | TGI (BT-549 breast): > 100 µM | TGI (HOP-62 NSCLC): 65.5 µM | TGI (UACC-257 melanoma): 67.5 µM | TGI (COLO 205 colon): 69.7 µM | TGI (A549 NSCLC): > 100 µM | TGI (HCT-116 colon): > 100 µM | TGI (T-47D breast): > 100 µM | TGI (DU-145 prostate): > 100 µM | TGI (TK-10 renal): > 100 µM | TGI (SK-OV-3 ovarian): 93.5 µM | TGI (MDA-MB-435): 66.1 µM | TGI (SNB-75 CNS): > 100 µM | TGI (U251 CNS): > 100 µM | TGI (UACC-62 melanoma): 68 µM | TGI (SF-539 CNS): > 100 µM | TGI (RXF 393 renal): 94.3 µM | TGI (CAKI-1 renal): > 100 µM | TGI (MCF7 breast): > 100 µM | TGI (SNB-19 CNS): 91.6 µM | TGI (CCRF-CEM leukemia): 56.5 µM | TGI (NCI-H460 lung): 59.6 µM | TGI (OVCAR-8 ovarian): > 100 µM | TGI (K-562 leukemia): > 100 µM | TGI (LOX IMVI melanoma): 75.3 µM | TGI (HS 578T breast): 56.6 µM | TGI (HCT-15 colon): > 100 µM | TGI (HCC-2998 colon): 46.2 µM | TGI (SR leukemia): > 100 µM | TGI (PC-3 prostate): > 100 µM | TGI (MOLT-4 leukemia): > 100 µM | TGI (786-0 renal): 59.7 µM | TGI (OVCAR-3 ovarian): > 100 µM | TGI (MDA-MB-231 breast): 95.9 µM | TGI (OVCAR-5 ovarian): 92.4 µM | TGI (OVCAR-4 ovarian): > 100 µM | TGI (NCI-H226 lung): 93.2 µM | TGI (SF-295 CNS): 88.1 µM | TGI (HOP-92 NSCLC): > 100 µM | TGI (HL-60(TB) leukemia): 97.9 µM | TGI (HT29 colon): 65 µM | TGI (SF-268 CNS): > 100 µM | TGI (SK-MEL-2 melanoma): 54.8 µM | TGI (NCI-H23 lung): 73.4 µM

O=C1CSC(c2cccc([N+](=O)[O-])c2)N1c1ccc(-n2c(-c3ccccc3)nc3ccccc3c2=O)cc1 (centres undefined)
TGI (RPMI-8226 leukemia): > 100 µM | TGI (SN12C renal): > 100 µM | TGI (EKVX NSCLC): > 100 µM | TGI (M14 melanoma): > 100 µM | TGI (IGROV1 ovarian): > 100 µM | TGI (NCI/ADR-RES ovarian): > 100 µM | TGI (UO-31 renal): 65.6 µM | TGI (SK-MEL-5 melanoma): > 100 µM | TGI (ACHN renal): > 100 µM | TGI (KM12 colon): > 100 µM | TGI (MALME-3M melanoma): > 100 µM | TGI (MDA-N): > 100 µM | TGI (SK-MEL-28 melanoma): > 100 µM | TGI (BT-549 breast): > 100 µM | TGI (HOP-62 NSCLC): > 100 µM | TGI (UACC-257 melanoma): > 100 µM | TGI (COLO 205 colon): > 100 µM | TGI (A549 NSCLC): > 100 µM | TGI (HCT-116 colon): > 100 µM | TGI (T-47D breast): > 100 µM | TGI (DU-145 prostate): > 100 µM | TGI (TK-10 renal): > 100 µM | TGI (SK-OV-3 ovarian): > 100 µM | TGI (MDA-MB-435): > 100 µM | TGI (U251 CNS): > 100 µM | TGI (UACC-62 melanoma): > 100 µM | TGI (SF-539 CNS): > 100 µM | TGI (A498 renal): > 100 µM | TGI (CAKI-1 renal): > 100 µM | TGI (MCF7 breast): > 100 µM | TGI (SNB-19 CNS): > 100 µM | TGI (CCRF-CEM leukemia): > 100 µM | TGI (NCI-H460 lung): > 100 µM | TGI (OVCAR-8 ovarian): > 100 µM | TGI (K-562 leukemia): > 100 µM | TGI (LOX IMVI melanoma): > 100 µM | TGI (HS 578T breast): > 100 µM | TGI (HCT-15 colon): > 100 µM | TGI (HCC-2998 colon): > 100 µM | TGI (SR leukemia): > 100 µM | TGI (PC-3 prostate): > 100 µM | TGI (MOLT-4 leukemia): > 100 µM | TGI (SW-620 colon): > 100 µM | TGI (786-0 renal): > 100 µM | TGI (OVCAR-3 ovarian): > 100 µM | TGI (MDA-MB-231 breast): > 100 µM | TGI (OVCAR-5 ovarian): > 100 µM | TGI (OVCAR-4 ovarian): > 100 µM | TGI (NCI-H226 lung): > 100 µM | TGI (SF-295 CNS): > 100 µM | TGI (NCI-H522 lung): > 100 µM | TGI (HOP-92 NSCLC): > 100 µM | TGI (HL-60(TB) leukemia): > 100 µM | TGI (HT29 colon): > 100 µM | TGI (SF-268 CNS): > 100 µM | TGI (SK-MEL-2 melanoma): > 100 µM | TGI (NCI-H23 lung): > 100 µM

Reference: PubChem BioAssay (NCI)
